Data taken from patent US20210047304A1, “Bromodomain Inhibitors” (AbbVie Inc., priority 2016, published 2021).

The compounds below were run against BRD4 (BDI_K57-E168) (Homo sapiens, UniProt O60885) (assay: TR-FRET bromodomain binding assay, BRD4 BDI).
Method: A time-resolved fluorescence resonance energy transfer (TR-FRET) assay was used to determine the affinities of compounds of the Examples listed in Table 1 for each bromodomain of BRD4. […] An Alexa647-labeled BET-inhibitor was used as the fluorescent probe in the assay.
(§1) Compound dilution series were prepared in DMSO via an approximately 3-fold serial dilution. Compound dilutions were added directly into white, low-volume assay plates (Perkin Elmer Proxiplate 384 Plus #6008280) using a Labcyte Echo in conjunction with Labcyte Access and Thermo Multidrop CombinL robotics. Compounds were then suspended in eight microliters (μL) of assay buffer (20 mM Sodium Phosphate, pH 6.0, 50 mM NaCl, 1 mM Ethylenediaminetetraacetic acid disodium salt dihydrate, 0.01% Triton X-100, 1 mM DL-Dithiothreitol) containing His-tagged bromodomain, Europium-conjugated anti-His antibody (Invitrogen PV5596) and Alexa-647-conjugated probe.
After a one-hour equilibration at room temperature, TR-FRET ratios were determined using an Envision multilabel plate reader (Ex 340, Em 495/520).
TR-FRET data were normalized to the means of 24 no-compound controls (“high”) and 8 controls containing 1 μM un-labeled probe (“low”). Percent inhibition was plotted as a function of compound concentration and the data were fit with the 4 parameter logistic equation to obtain IC50s. Inhibition constants (Ki) were calculated from the IC50s, probe Kd and probe concentration.
Compound dilution series for Compounds A-E were prepared in DMSO via an approximately 3-fold serial dilution from 0.47 mM to 7.8 nM.
as §1, with “Compound” for “Compound dilution series were prepared in DMSO via an approximately 3-fold serial dilution. Compound”
TR-FRET data were normalized to the means of 24 no-compound controls (“high”) and 8 controls containing 1 μM un-labeled probe (“low”). Percent inhibition was plotted as a function of compound concentration and the data were fit with the 4 parameter logistic equation to obtain IC50s. Inhibition constants (Ki) were calculated from the IC50s, probe Kd and probe concentration. Typical Z′ values were between 0.65 and 0.75. The minimum significant ratio was determined to evaluate assay reproducibility (Eastwood et al., (2006) J Biomol Screen, 11: 253-261). The MSR was determined to be 2.03 for BDI and 1.93 for BDII, and a moving MSR (last six run MSR overtime) for both BDI and BDII was typically <3.

Question: `Cc1cc(F)cc(C)c1Oc1ccc(C(C)(C)O)cc1-c1cn(C)c(=O)cc1O[C@H]1CC[C@H](N2C(=O)CCC2C)CC1` (relative stereo) [Example 42, 5-[2-(4-fluoro-2,6-dimethylphenoxy)-5-(2-hydroxypropan-2-yl)phenyl]-1-methyl-4-{[trans-4-(2-methyl-5-oxopyrrolidin-1-yl)cyclohexyl]oxy}pyridin-2(1H)-one] was tested. Which Ki did it give?
Answer: 3.84 µM

Question: Which Ki does the source give for `Cc1cc(F)cc(C)c1Oc1ccc(C(C)(C)O)cc1-c1cn(C)c(=O)cc1O[C@H]1CC[C@H](NC(=O)C23CC(NC(=O)OC(C)(C)C)(C2)C3)CC1` (relative stereo) [Example 72, tert-butyl (3-{[trans-4-({5-[2-(4-fluoro-2,6-dimethylphenoxy)-5-(2-hydroxypropan-2-yl)phenyl]-1-methyl-2-oxo-1,2-dihydropyridin-4-yl}oxy)cyclohexyl]carbamoyl}bicyclo[1.1.1]pentan-1-yl)carbamate] here?
Answer: > 13 µM

Question: With `Cc1cc(F)cc(C)c1Oc1ccc(C(C)(C)O)cc1-c1cn(C)c(=O)cc1O[C@H]1CC[C@H](NC(=O)C23CC(C2)C3)CC1` (relative stereo) [Example 86, N-[trans-4-({5-[2-(4-fluoro-2,6-dimethylphenoxy)-5-(2-hydroxypropan-2-yl)phenyl]-1-methyl-2-oxo-1,2-dihydropyridin-4-yl}oxy)cyclohexyl]bicyclo[1.1.1]pentane-1-carboxamide] as the compound, how does the Ki read?
Answer: 1.74 µM

Question: How did the Ki turn out when `Cc1cc(F)cc(C)c1Oc1ccc(C(C)(C)O)cc1-c1cn(C)c(=O)cc1O[C@H]1CC[C@H](NC(=O)C23CC(N)(C2)C3)CC1` (relative stereo) [Example 93, 3-amino-N-[trans-4-({5-[2-(4-fluoro-2,6-dimethylphenoxy)-5-(2-hydroxypropan-2-yl)phenyl]-1-methyl-2-oxo-1,2-dihydropyridin-4-yl}oxy)cyclohexyl]bicyclo[1.1.1]pentane-1-carboxamide] was run?
Answer: 1.19 µM

Question: For `Cc1cc(F)cc(C)c1Oc1ccc(C(C)(C)O)cc1-c1cn(C)c(=O)cc1O[C@H]1CC[C@H](NC(=O)C23CCC(NC(=O)OC(C)(C)C)(C2)C3)CC1` (relative stereo) [Example 103, tert-butyl (4-{[trans-4-({5-[2-(4-fluoro-2,6-dimethylphenoxy)-5-(2-hydroxypropan-2-yl)phenyl]-1-methyl-2-oxo-1,2-dihydropyridin-4-yl}oxy)cyclohexyl]carbamoyl}bicyclo[2.1.1]hexan-1-yl)carbamate], which Ki is on record?
Answer: 8.01 µM

Question: How did the Ki turn out when `Cc1cc(F)cc(C)c1Oc1ccc(C(C)(C)O)cc1-c1cn(C)c(=O)cc1O[C@H]1CC[C@H](NC(=O)C23CCC(CO)(CC2)CC3)CC1` (relative stereo) [Example 110, N-[trans-4-({5-[2-(4-fluoro-2,6-dimethylphenoxy)-5-(2-hydroxypropan-2-yl)phenyl]-1-methyl-2-oxo-1,2-dihydropyridin-4-yl}oxy)cyclohexyl]-4-(hydroxymethyl)bicyclo[2.2.2]octane-1-carboxamide] was run?
Answer: 3.65 µM

Question: `Cc1cc(F)cc(C)c1Oc1ccc(C(C)(C)O)cc1-c1cn(C)c(=O)cc1O[C@H]1CC[C@H](N2C(=O)C3COCCN3C2=O)CC1` (relative stereo) [Example 126, 2-[trans-4-({5-[2-(4-fluoro-2,6-dimethylphenoxy)-5-(2-hydroxypropan-2-yl)phenyl]-1-methyl-2-oxo-1,2-dihydropyridin-4-yl}oxy)cyclohexyl]tetrahydro-1H-imidazo[5,1-c][1,4]oxazine-1,3(2H)-dione] was tested. Which Ki did it give?
Answer: > 13 µM

Question: `Cc1cc(F)cc(C)c1Oc1ccc(C(C)(C)O)cc1-c1cn(C)c(=O)cc1O[C@H]1CC[C@H](N2C(=O)C3CC3C2=O)CC1` (relative stereo) [Example 129, 3-[trans-4-({5-[2-(4-fluoro-2,6-dimethylphenoxy)-5-(2-hydroxypropan-2-yl)phenyl]-1-methyl-2-oxo-1,2-dihydropyridin-4-yl}oxy)cyclohexyl]-3-azabicyclo[3.1.0]hexane-2,4-dione] was tested. Which Ki did it give?
Answer: 0.772 µM

Question: With `Cc1cc(F)cc(C)c1Oc1ccc(C(C)(C)O)cc1-c1cn(C)c(=O)cc1O[C@H]1CC[C@H](N2C(=O)C(C)(C)N(C)C2C)CC1` (relative stereo) [Example 134, 5-[2-(4-fluoro-2,6-dimethylphenoxy)-5-(2-hydroxypropan-2-yl)phenyl]-1-methyl-4-{[trans-4-(2,3,4,4-tetramethyl-5-oxoimidazolidin-1-yl)cyclohexyl]oxy}pyridin-2(1H)-one] as the compound, how does the Ki read?
Answer: 1.67 µM

Question: How did the Ki turn out when `CC(=O)NC12CCC(C(=O)N[C@H]3CC[C@H](Oc4cc(=O)n(C)cc4-c4cc(C(C)(C)O)ccc4Oc4c(C)cc(F)cc4C)CC3)(C1)C2` (relative stereo) [Example 137, 4-acetamido-N-[trans-4-({5-[2-(4-fluoro-2,6-dimethylphenoxy)-5-(2-hydroxypropan-2-yl)phenyl]-1-methyl-2-oxo-1,2-dihydropyridin-4-yl}oxy)cyclohexyl]bicyclo[2.1.1]hexane-1-carboxamide] was run?
Answer: 1.8 µM

Question: How did the Ki turn out when `CC(=O)N[C@H]1CC[C@H](Oc2cc(=O)n(C)cc2-c2cc(C(C)(C)O)cnc2Oc2c(C)cc(F)cc2C)CC1` [Example 1, N-(trans-4-{[2′-(4-fluoro-2,6-dimethylphenoxy)-5′-(2-hydroxypropan-2-yl)-1-methyl-6-oxo[1,6-dihydro[3,3′-bipyridine]]-4-yl]oxy}cyclohexyl)acetamide] was run?
Answer: 1.71 µM

Question: `Cc1cccc(C)c1Oc1ccc(C(C)(C)O)cc1-c1cn(C)c(=O)cc1NC1CCN(S(C)(=O)=O)CC1` [Example 2, 5-[2-(2,6-dimethylphenoxy)-5-(2-hydroxypropan-2-yl)phenyl]-4-{[1-(methanesulfonyl)piperidin-4-yl]amino}-1-methylpyridin-2(1H)-one] was tested. Which Ki did it give?
Answer: 5.89 µM

Question: With `CC(=O)N[C@H]1CC[C@H](Oc2cc(=O)n(C)cc2-c2cc(C(C)(C)O)ccc2Oc2c(C)cc(F)cc2C)CC1` [Example 3, N-[trans-4-({5-[2-(4-fluoro-2,6-dimethylphenoxy)-5-(2-hydroxypropan-2-yl)phenyl]-1-methyl-2-oxo-1,2-dihydropyridin-4-yl}oxy)cyclohexyl]acetamide] as the compound, how does the Ki read?
Answer: 1.02 µM

Question: Which Ki does the source give for `COC(=O)N[C@H]1CC[C@H](Oc2cc(=O)n(C)cc2-c2cc(C(C)(C)O)ccc2Oc2c(C)cc(F)cc2C)CC1` [Example 4, methyl [trans-4-({5-[2-(4-fluoro-2,6-dimethylphenoxy)-5-(2-hydroxypropan-2-yl)phenyl]-1-methyl-2-oxo-1,2-dihydropyridin-4-yl}oxy)cyclohexyl]carbamate] here?
Answer: 1.45 µM

Question: `COC(=O)N[C@H]1CC[C@H](Oc2cc(=O)n(C)cc2-c2cc(C(C)(C)O)cnc2Oc2c(C)cc(F)cc2C)CC1` [Example 5, methyl (trans-4-{[2′-(4-fluoro-2,6-dimethylphenoxy)-5′-(2-hydroxypropan-2-yl)-1-methyl-6-oxo[1,6-dihydro[3,3′-bipyridine]]-4-yl]oxy}cyclohexyl)carbamate] was tested. Which Ki did it give?
Answer: 1.96 µM

Question: Which Ki does the source give for `CC(=O)NC[C@H]1C[C@H](Oc2cc(=O)n(C)cc2-c2cc(C(C)(C)O)ccc2Oc2c(C)cc(F)cc2C)C1` [Example 6, N-{[trans-3-({5-[2-(4-fluoro-2,6-dimethylphenoxy)-5-(2-hydroxypropan-2-yl)phenyl]-1-methyl-2-oxo-1,2-dihydropyridin-4-yl}oxy)cyclobutyl]methyl}acetamide] here?
Answer: 0.72 µM

Question: With `COC(=O)NC[C@H]1C[C@H](Oc2cc(=O)n(C)cc2-c2cc(C(C)(C)O)ccc2Oc2c(C)cc(F)cc2C)C1` [Example 7, methyl {[trans-3-({5-[2-(4-fluoro-2,6-dimethylphenoxy)-5-(2-hydroxypropan-2-yl)phenyl]-1-methyl-2-oxo-1,2-dihydropyridin-4-yl}oxy)cyclobutyl]methyl}carbamate] as the compound, how does the Ki read?
Answer: 0.906 µM

Question: For `Cc1cc(F)cc(C)c1Oc1ccc(C(C)(C)O)cc1-c1cn(C)c(=O)cc1O[C@H]1C[C@@H](CNC(=O)OC(C)(C)C)C1` [Example 8, tert-butyl {[cis-3-({5-[2-(4-fluoro-2,6-dimethylphenoxy)-5-(2-hydroxypropan-2-yl)phenyl]-1-methyl-2-oxo-1,2-dihydropyridin-4-yl}oxy)cyclobutyl]methyl}carbamate], which Ki is on record?
Answer: 2.7 µM

Question: For `Cc1cc(F)cc(C)c1Oc1ccc(C(C)(C)O)cc1-c1cn(C)c(=O)cc1NC1CCN(S(C)(=O)=O)CC1` [Example 9, 5-[2-(4-fluoro-2,6-dimethylphenoxy)-5-(2-hydroxypropan-2-yl)phenyl]-4-{[1-(methanesulfonyl)piperidin-4-yl]amino}-1-methylpyridin-2(1H)-one], which Ki is on record?
Answer: 3.68 µM
